# Data published in patent US12297187B2, “Compound having cyclic structure” (Daiichi Sankyo Company, Limited, priority 2017, dated 2025).
# System: IL-10
# Test: Measurement of IL-10 increase rate (LPS-induced inflammation in mice, serum IL-10 by ELISA)
# Type: in vivo
# Conditions: Mus musculus, 2 h, oral 100 mg/kg in 0.5% methyl cellulose, LPS 0.4 mg/kg i.p. one hour later, serum taken one hour after LPS, % control ratio vs 0.5% methyl cellulose group, read-out: IL10 Increase Rate (%)
# Experimental: A test substance was suspended in a 0.5% (w/v) methyl cellulose and orally administered to mice at a dose of 100 mg/kg. One hour later, a lipopolysaccharide (LPS, Sigma-Aldrich, L2630 (trade name)) (0.4 mg/kg) was intraperitoneally administered to induce inflammation. One hour after administration of LPS, blood was taken from the vena cava under anesthesia with isoflurane, placed in a tube containing a serum separating agent, allowed to stand still at room temperature for 20-30 minutes and centrifuged at 4° C. at 12,000 rpm for 5 minutes to obtain the serum. Thereafter, the amount of the IL-10 in the serum was measured by using Mouse IL-10 Quantikine ELISA Kit (R&D systems, M1000B (trade name)) or Mouse IL-10 Immunoassay kit (PerkinElmer, AL502 (trade name)) in accordance with the protocol of the kit. The serum was diluted 10 times with the dilution solution contained in the kit and put in use. IL-10 increase rate (% control ratio) of the compound was calculated in accordance with the following expression: IL-10 increase rate (% control ratio) (IL10 amount in compound administration group)×100/(IL-10 amount in 0.5% (w/v) methyl cellulose administration group)
row,Structure (SMILES),response vs control in vivo at 100 mg/kg
1,"Cn1c(COc2cc(C(F)(F)F)ccn2)nnc1[C@H]1CC[C@H](c2cn([C@H]3CC[C@H](N4CC(CF)C4)CC3)nn2)CC1 [Example 20, 2-({5-[trans-4-(1-{trans-4-[3-(Fluoromethyl)azetidin-1-yl]cyclohexyl}-1H-1,2,3-triazol-4-yl)cyclohexyl]-4-methyl-4H-1,2,4-triazol-3-yl}methoxy)-4-(trifluoromethyl)pyridine]",176%
2,"Cn1c(COc2cc(C(F)(F)F)ccn2)nnc1[C@H]1CC[C@H](c2cnn([C@H]3CC[C@H](N4CC5(COC5)C4)CC3)c2)CC1 [Example 24, 6-[trans-4-(4-{trans-4-[4-Methyl-5-({[4-(trifluoromethyl)pyridin-2-yl]oxy}methyl)-4H-1,2,4-triazol-3-yl]cyclohexyl}-1H-pyrazol-1-yl)cyclohexyl]-2-oxa-6-azaspiro[3.3]heptane]",257%
3,"CC(C)c1cccc(CC2OCCn3c2nnc3[C@H]2CC[C@H](n3cc(C4(F)CCN(C)CC4)nn3)CC2)c1 (stereo partly drawn) [Example 14, 3-{trans-4-[4-(4-Fluoro-1-methylpiperidin-4-yl)-1H-1,2,3-triazol-1-yl]cyclohexyl}-8-[3-(propan-2-yl)benzyl]-5,6-dihydro-8H-[1,2,4]triazolo[3,4-c][1,4]oxazine]",216%
4,"CN1CCC(F)(c2cn([C@H]3CC[C@H](c4nnc(COc5ccc(Cl)c(C(F)(F)F)c5)n4C)CC3)nn2)CC1 [Example 5, 4-{1-[trans-4-(5-{[4-Chloro-3-(trifluoromethyl)phenoxy]methyl}-4-methyl-4H-1,2,4-triazol-3-yl)cyclohexyl]-1H-1,2,3-triazol-4-yl}-4-fluoro-1-methylpiperidine]",206%
5,"CC(C)c1cccc(OCc2nnc([C@H]3CC[C@H](n4cc(-c5ccc([C@@H](C)N6CCC6)cc5)nn4)CC3)n2C)c1 [Example 6, 4-{4-[(1R)-1-(Azetidin-1-yl)ethyl]phenyl}-1-[trans-4-(4-methyl-5-{[3-(propan-2-yl)phenoxy]methyl}-4H-1,2,4-triazol-3-yl)cyclohexyl]-1H-1,2,3-triazole]",243%
6,"Cn1c(CCn2cccc(C(F)(F)F)c2=O)nnc1[C@H]1CC[C@H](c2cnn([C@H]3CC[C@H](N4CC5(CCOC5)C4)CC3)c2)CC1 [Example 33, 1-{2-[4-Methyl-5-(trans-4-{1-[trans-4-(6-oxa-2-azaspiro[3.4]oct-2-yl)cyclohexyl]-1H-pyrazol-4-yl}cyclohexyl)-4H-1,2,4-triazol-3-yl]ethyl}-3-(trifluoromethyl)pyridin-2(1H)-one]",144%
7,"Cn1c(COc2cccc(C(F)(F)F)c2)nnc1[C@H]1CC[C@H](c2cnn([C@H]3CC[C@H](N4CCC4)CC3)c2)CC1 [Example 21, 3-(trans-4-{1-[trans-4-(Azetidin-1-yl)cyclohexyl]-1H-pyrazol-4-yl}cyclohexyl)-4-methyl-5-{[3-(trifluoromethyl)phenoxy]methyl}-4H-1,2,4-triazole]",312%
8,"CN(C)C12CC(c3cn([C@H]4CC[C@H](c5nnc(COc6cccc(C(F)(F)F)c6)n5C)CC4)nn3)(C1)C2 [Example 12, N,N-Dimethyl-3-{1-[trans-4-(4-methyl-5-{[3-(trifluoromethyl)phenoxy]methyl}-4H-1,2,4-triazol-3-yl)cyclohexyl]-1H-1,2,3-triazol-4-yl}bicyclo[1.1.1]pentan-1-amine]",177%
9,"Cn1c(COc2cccc(Cl)c2)nnc1[C@H]1CC[C@H](c2cc([C@@H]3CC[C@@H](N4CCC4)CO3)on2)CC1 [Example 35, 3-(trans-4-{5-[(2S,5R)-5-(Azetidin-1-yl)tetrahydro-2H-pyran-2-yl]-1,2-oxazol-3-yl}cyclohexyl)-5-[(3-chlorophenoxy)methyl]-4-methyl-4H-1,2,4-triazole]",184%
10,"Cn1c(COc2cccc(C(F)(F)F)c2)nnc1[C@H]1CC[C@H](n2cc(C34CCC(CN5CCC5)(CC3)CC4)nn2)CC1 [Example 10, 4-[4-(Azetidin-1-ylmethyl)bicyclo[2.2.2]oct-1-yl]-1-[trans-4-(4-methyl-5-{[3-(trifluoromethyl)phenoxy]methyl}-4H-1,2,4-triazol-3-yl)cyclohexyl]-1H-1,2,3-triazole]",390%
11,"CN(C)C12CCC(c3cn([C@H]4CC[C@H](c5nnc(COc6cccc(C(F)(F)F)c6)n5C)CC4)nn3)(CC1)CC2 [Example 11, N,N-Dimethyl-4-{1-[trans-4-(4-methyl-5-{[3-(trifluoromethyl)phenoxy]methyl}-4H-1,2,4-triazol-3-yl)cyclohexyl]-1H-1,2,3-triazol-4-yl}bicyclo[2.2.2]octan-1-amine]",180%
12,"Cn1c(COc2cc(C(F)(F)F)ccn2)nnc1[C@H]1CC[C@H](c2cnn([C@H]3CC[C@H](N4CCOCC4)CC3)c2)CC1 [Example 23, 4-[trans-4-(4-{trans-4-[4-Methyl-5-({[4-(trifluoromethyl)pyridin-2-yl]oxy}methyl)-4H-1,2,4-triazol-3-yl]cyclohexyl}-1H-pyrazol-1-yl)cyclohexyl]morpholine]",232%
13,"Cn1c(COc2cccc(C(F)(F)F)c2)nnc1[C@H]1CC[C@H](c2cnn([C@@H]3CC[C@@H](CN4CCC4)OC3)c2)CC1 [Example 22, 1,5-Anhydro-6-azetidin-1-yl-2,3,4,6-tetradeoxy-2-{4-[trans-4-(4-methyl-5-{[3-(trifluoromethyl)phenoxy]methyl}-4H-1,2,4-triazol-3-yl)cyclohexyl]-1H-pyrazol-1-yl}-D-erythro-hexitol]",113%
14,"CN1CCC(c2cn(-c3ccc(-c4nnc(COc5cccc(C(F)(F)F)c5)n4C)cc3)cn2)CC1 [Example 18, 1-Methyl-4-{1-[4-(4-methyl-5-{[3-(trifluoromethyl)phenoxy]methyl}-4H-1,2,4-triazol-3-yl)phenyl]-1H-imidazol-4-yl}piperidine]",157%
15,"CC(C)c1cccc(O[C@H](C)c2nnc([C@H]3CC[C@H](n4cc(C5(F)CCN(C)CC5)nn4)CC3)n2C)c1 [Example 4, 4-Fluoro-1-methyl-4-{1-[trans-4-(4-methyl-5-{(1R)-1-[3-(propan-2-yl)phenoxy]ethyl}-4H-1,2,4-triazol-3-yl)cyclohexyl]-1H-1,2,3-triazol-4-yl}piperidine]",131%
16,"CC(C)c1cccc(O[C@@H](C)c2nnc(C34CCC(n5cc(-c6ccc([C@@H](C)N7CCC7)cc6)nn5)(CC3)CC4)n2C)c1 [Example 7, 4-{4-[(1R)-1-(Azetidin-1-yl)ethyl]phenyl}-1-[4-(4-methyl-5-{(1S)-1-[3-(propan-2-yl)phenoxy]ethyl}-4H-1,2,4-triazol-3-yl)bicyclo[2.2.2]oct-1-yl]-1H-1,2,3-triazole]",113%
17,"CC(C)c1cccc(O[C@H](C)c2nnc([C@H]3CC[C@H](C4=NOC5(CCN(C)CC5)C4)CC3)n2C)c1 [Example 36, 8-Methyl-3-[trans-4-(4-methyl-5-{(1R)-1-[3-(propan-2-yl)phenoxy]ethyl}-4H-1,2,4-triazol-3-yl)cyclohexyl]-1-oxa-2,8-diazaspiro[4.5]dec-2-ene]",230%
